Data on ten compounds can be found in PubChem BioAssay (NCI).

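Dose response: 5 concentrations. Exposure: 48 h. Format: 96-well plates. Endpoint: linear interpolation; highest concentration if not reached. TGI denotes the concentration required for complete inhibition of growth.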

Among the test systems are SK-MEL-2 melanoma; CCRF-CEM leukemia; SK-MEL-28 melanoma; NCI/ADR-RES ovarian; NCI-H522 lung; HCC-2998 colon; LOX IMVI melanoma; MOLT-4 leukemia; KM12 colon; HOP-92 NSCLC; IGROV1 ovarian; TK-10 renal; PC-3 prostate; DU-145 prostate; SR leukemia; MDA-MB-435.
What all share (test): NCI-60 cell line screen, 48 h

Turning to `CCCCN(C)/N=N/c1nc[nH]c1C(N)=O`, the TGI in the assay on SK-MEL-2 melanoma, with CCRF-CEM leukemia, in the assay on SK-MEL-28 melanoma, with NCI/ADR-RES ovarian, with NCI-H522 lung and with HCC-2998 colon was > 100 µM in each case. Besides, the TGI in the assay on LOX IMVI melanoma, in the assay with MOLT-4 leukemia, in the assay on KM12 colon, in the assay on HOP-92 NSCLC and in the assay with IGROV1 ovarian was > 100 µM in each case.

For the compound `CN(C)CC1CCC(CN(C)C)C(=O)C1=O` (configuration not stated), the TGI with SK-MEL-2 melanoma was determined as 34.6 µM; in the assay with TK-10 renal, 9.96 µM; with CCRF-CEM leukemia it was 4.51 µM; in the assay with SK-MEL-28 melanoma, 20.6 µM; in the assay with NCI-H522 lung it was 1.38 µM; in the assay on HCC-2998 colon it was 35.4 µM. Besides, the TGI came to 31.1 µM in the assay with PC-3 prostate; 30.1 µM in the assay with DU-145 prostate; 22.2 µM in the assay with LOX IMVI melanoma; 4.96 µM with MOLT-4 leukemia; 28.1 µM in the assay on KM12 colon; 5.08 µM with SR leukemia. Also, the TGI in the assay on HOP-92 NSCLC turned out to be 3.81 µM; in the assay with MDA-MB-435 it was 31.7 µM; with IGROV1 ovarian, 33.2 µM.

Consider `O=C1C2C=CC(n3[nH]c(=O)n(Cc4ccccc4)c3=O)CC2C(=O)N1c1ccc(Br)cc1` (configuration not stated), for which the TGI in the assay on SK-MEL-2 melanoma, with TK-10 renal, with CCRF-CEM leukemia, in the assay on SK-MEL-28 melanoma, in the assay on NCI-H522 lung and in the assay with HCC-2998 colon was > 100 µM in each case. In addition, the TGI in the assay with LOX IMVI melanoma, in the assay with MOLT-4 leukemia, in the assay with KM12 colon, in the assay on SR leukemia, with HOP-92 NSCLC and with IGROV1 ovarian was > 100 µM each time.

Take `Cc1c([C@H](C)[C@@H]2NC[C@@H](C)C[C@H]2O)ccc2c1C[C@H]1[C@H]2CC=C2C[C@@H](O)CC[C@@]21C`: the TGI in the assay with TK-10 renal was 67.3 µM; with CCRF-CEM leukemia it was 38.4 µM; in the assay with SK-MEL-28 melanoma, 37.5 µM; in the assay on NCI/ADR-RES ovarian, > 100 µM; in the assay with NCI-H522 lung it was 36.6 µM; in the assay with HCC-2998 colon, 30 µM. Besides, the TGI with PC-3 prostate is 32.1 µM; in the assay on DU-145 prostate it was > 100 µM; in the assay with LOX IMVI melanoma, 27 µM; in the assay with MOLT-4 leukemia it was 37.4 µM; with KM12 colon, 37.2 µM; with HOP-92 NSCLC, 23.3 µM. The figures for the TGI in the assay with MDA-MB-435 and in the assay with IGROV1 ovarian were 26.4 µM and 43.9 µM, respectively.

On to `Oc1ccc(Oc2cc3c(cc2Oc2ccc(O)cc2)-c2nc-3nc3[nH]c(nc4nc(nc5[nH]c(n2)c2cc(Oc6ccc(O)cc6)c(Oc6ccc(O)cc6)cc52)-c2cc(Oc5ccc(O)cc5)c(Oc5ccc(O)cc5)cc2-4)c2cc(Oc4ccc(O)cc4)c(Oc4ccc(O)cc4)cc32)cc1`, for which the TGI in the assay with TK-10 renal, with CCRF-CEM leukemia, in the assay with SK-MEL-28 melanoma, in the assay on NCI/ADR-RES ovarian, in the assay with NCI-H522 lung and with HCC-2998 colon was > 100 µM throughout. Moreover, the TGI with PC-3 prostate, in the assay with LOX IMVI melanoma, in the assay on MOLT-4 leukemia, with KM12 colon, in the assay on SR leukemia and in the assay with HOP-92 NSCLC was > 100 µM throughout. Moreover, the TGI with MDA-MB-435 and in the assay with IGROV1 ovarian was > 100 µM in each case.

Consider `O=C(N=Nc1ccccc1Cl)NNc1ccccc1Cl`, for which the TGI in the assay on SK-MEL-2 melanoma was 67.4 µM; with TK-10 renal it was > 100 µM; with CCRF-CEM leukemia, 53.6 µM; in the assay with SK-MEL-28 melanoma it was > 100 µM; in the assay on NCI-H522 lung, 52.7 µM; with HCC-2998 colon, 94.1 µM. Further, the TGI in the assay on PC-3 prostate was > 100 µM; with DU-145 prostate it was > 100 µM; in the assay on LOX IMVI melanoma, 44.8 µM; with MOLT-4 leukemia, 82.9 µM; in the assay with SR leukemia it was > 100 µM; in the assay on MDA-MB-435, > 100 µM. This compound returned a TGI with IGROV1 ovarian of 43.2 µM.

As to `O=c1c2ccccc2nc2ccc3c(Cl)[nH][nH]c3c12`, the TGI was > 100 µM with SK-MEL-2 melanoma; > 100 µM with TK-10 renal; > 100 µM in the assay on CCRF-CEM leukemia; > 100 µM with SK-MEL-28 melanoma; > 83.1 µM in the assay on NCI-H522 lung; > 100 µM in the assay with HCC-2998 colon. Moreover, the TGI in the assay with LOX IMVI melanoma was 58.3 µM; in the assay on MOLT-4 leukemia, > 79 µM; in the assay on KM12 colon, > 100 µM; in the assay with SR leukemia, > 100 µM; in the assay on HOP-92 NSCLC it was > 100 µM; in the assay with IGROV1 ovarian, > 100 µM.

Regarding `CCCCCCCCC#CCCCCCCCCCC[C@@H]1C(=O)O[C@H](C)[C@@H]1O` (tested in a mixture with another compound), the TGI was 46.4 µM in the assay with SK-MEL-2 melanoma; 40.8 µM with TK-10 renal; > 100 µM in the assay on SK-MEL-28 melanoma; 23.8 µM in the assay on NCI/ADR-RES ovarian; 18.8 µM in the assay on NCI-H522 lung; > 100 µM with HCC-2998 colon. Also, the TGI was determined as 46.9 µM in the assay on PC-3 prostate; 28.8 µM in the assay on LOX IMVI melanoma; 33.5 µM in the assay with MOLT-4 leukemia; 21.9 µM with KM12 colon; 25.1 µM with HOP-92 NSCLC; 32.7 µM in the assay on IGROV1 ovarian.

On to `Clc1ccc(C2=CCN3CC=C(c4ccc(Cl)cc4)C23)cc1`, for which the TGI with SK-MEL-2 melanoma was 29.6 µM; in the assay with TK-10 renal it was 27.5 µM; with CCRF-CEM leukemia, 52 µM; with SK-MEL-28 melanoma, 28 µM; in the assay on NCI/ADR-RES ovarian, 26.9 µM; with NCI-H522 lung it was 22.8 µM. Further, the TGI worked out at 11.3 µM in the assay with HCC-2998 colon; 29.2 µM with DU-145 prostate; 20.6 µM in the assay with LOX IMVI melanoma; 28 µM in the assay on MOLT-4 leukemia; 19.2 µM in the assay on KM12 colon; 21.9 µM in the assay with SR leukemia. The TGI in the assay with MDA-MB-435 came to 22.9 µM; with IGROV1 ovarian, 21.9 µM.

For the compound `CCC(=O)OC1CCn2c1nc1c2C(=O)C(C)=C(NC(C)=O)C1=N` (configuration not stated), the TGI in the assay on SK-MEL-2 melanoma worked out at 3.43 µM; with TK-10 renal it was 12.8 µM; in the assay with SK-MEL-28 melanoma, 3.5 µM; with NCI-H522 lung, 2.79 µM; in the assay with HCC-2998 colon, 13 µM; with LOX IMVI melanoma, 3 µM. Further, the TGI was 5.37 µM in the assay with KM12 colon, > 100 µM with SR leukemia, 5.15 µM in the assay on HOP-92 NSCLC and 5.54 µM with IGROV1 ovarian.
